Assay [1] addresses T1, Renin (Homo sapiens, UniProt P00797).
T1 sequence (P00797 whole entry): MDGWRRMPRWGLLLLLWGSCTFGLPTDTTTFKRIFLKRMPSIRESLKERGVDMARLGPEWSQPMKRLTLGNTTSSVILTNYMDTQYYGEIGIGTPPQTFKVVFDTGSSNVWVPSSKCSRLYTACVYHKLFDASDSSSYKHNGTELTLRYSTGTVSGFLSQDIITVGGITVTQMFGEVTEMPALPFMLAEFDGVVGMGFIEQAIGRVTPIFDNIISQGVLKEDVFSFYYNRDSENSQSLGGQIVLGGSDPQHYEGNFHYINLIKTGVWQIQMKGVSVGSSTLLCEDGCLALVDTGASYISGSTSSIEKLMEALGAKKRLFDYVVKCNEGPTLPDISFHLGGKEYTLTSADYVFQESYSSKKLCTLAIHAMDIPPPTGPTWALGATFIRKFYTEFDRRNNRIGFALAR
The assay is described as follows: Inhibition of human recombinant renin.

Assay [2] deals with T1, Renin. The assay is described as follows: Inhibition of human recombinant renin in presence of human plasma by competitive radioimmunoassay. It counts as cell-free.

On to `CNC[C@H](CC1CCCCC1)NC(=O)N1CCC[C@@H]([C@@](O)(CCCCOC)c2ccccc2)C1`, for which the values for the IC50 on Renin [1] and at Renin [2] were 7 nM and 64 nM, respectively.
On to `CNC[C@H](CC1CCCCC1)NC(=O)N1CCC[C@@H]([C@@](O)(CCCCOC)c2cccc(F)c2F)C1`, for which the results for the 50% inhibitory concentration (IC50) on Renin [1] and at Renin [2] were 0.14 nM and 20 nM, respectively.
In the same order, the values of `COCCCC[C@@](O)(c1cccc(Cl)c1)[C@@H]1CCCN(C(=O)N[C@H](CNCC(F)(F)F)CC2CCCCC2)C1` are 46 nM and 1400 nM.
Regarding `CCOCCCC[C@@](O)(c1ccccc1)[C@@H]1CCCN(C(=O)N[C@H](CNC)CC2CCCCC2)C1`, the concentration for half-maximal inhibition (IC50) at Renin [1] amounted to 16 nM; at Renin [2], 162 nM.
As to `CCOCCCO[C@@H](c1cccc(F)c1)[C@@H]1CCCN(C(=O)N[C@H](CNC)CC2CCCCC2)C1`, the concentration for half-maximal inhibition (IC50) turned out to be 11 nM on Renin [1] and 84 nM at Renin [2].
`CNC[C@H](CC1CCCCC1)NC(=O)N1CCC[C@@H]([C@@](O)(CCCCOC)c2cccc(OC(F)(F)F)c2)C1`: the IC50 on Renin [1] worked out at 69 nM.
For the compound `CNC[C@H](CC1CCCCC1)NC(=O)N1CCC[C@@H]([C@@](O)(CCCCOC)c2ccccc2F)C1`, the results for the IC50 at Renin [1] and on Renin [2] were 4 nM and 61 nM, respectively.
On to `CNC[C@H](CC1CCCCC1)NC(=O)N1CCC[C@@H]([C@@](O)(CCCCOC)c2cccc(F)c2)C1`, for which the figures for the IC50 on Renin [1] and at Renin [2] were 3 nM and 47 nM, respectively.
In the case of `CNC[C@H](CC1CCCCC1)NC(=O)N1CCC[C@@H]([C@@](O)(CCCCOC)c2cccc(Cl)c2)C1`, the half-inhibitory concentration (IC50) on Renin [2] came to 13 nM.
With `CCOCCCO[C@@H](c1cccc(Cl)c1Cl)[C@@H]1CCCN(C(=O)N[C@H](CNC)CC2CCCCC2)C1`, the 50% inhibitory concentration (IC50) on Renin [1] came out at 125 nM.
Still for that read-out and setting: for `CNC[C@H](CC1CCCCC1)NC(=O)N1CCC[C@@H]([C@@H](OCCCO)c2cccc(Cl)c2)C1` the value was 764 nM.
Turning to `CCc1cccc([C@](O)(CCCCOC)[C@@H]2CCCN(C(=O)N[C@H](CNC)CC3CCCCC3)C2)c1`, the figures for the concentration for half-maximal inhibition (IC50) on Renin [1] and at Renin [2] were 9 nM and 285 nM, respectively.
On to `CCOCCCO[C@@H](c1cccc(Cl)c1)[C@@H]1CCCN(C(=O)N[C@H](CN)CC2CCCCC2)C1`, for which the IC50 on Renin [1] was determined as 5.5 nM; on Renin [2], 190 nM.
On the same counts, the results for `COCCCC[C@@](O)(c1ccccc1)[C@@H]1CCCN(C(=O)N[C@H](CN)CC2CCCCC2)C1` are 21 nM and 165 nM.
On to `CCOCCCO[C@@H](c1cccc(Cl)c1)[C@@H]1CCCN(C(=O)N[C@H](CNC)CC2CCCCC2)C1`, for which the IC50 on Renin [1] came to 4 nM.
On the same count and under the same terms, the figure for `COCCCO[C@@H](c1ccccc1)[C@@H]1CCCN(C(=O)N[C@H](CN)CC2CCCCC2)C1` is 308 nM.
For `CNC[C@H](CC1CCCCC1)NC(=O)N1CCC[C@@H]([C@@](O)(CCCCO)c2cccc(Cl)c2)C1`, the concentration for half-maximal inhibition (IC50) on Renin [1] worked out at 21 nM; on Renin [2], 315 nM.
On to `CNC[C@H](CC1CCCCC1)NC(=O)N1CCC[C@@H]([C@@](O)(CCCCOC)c2cccc(Cl)c2F)C1`, for which the IC50 amounted to 0.1 nM on Renin [1] and 27 nM on Renin [2].
For `CNC[C@H](CC1CCCCC1)NC(=O)N1CCC[C@@H]([C@@](O)(CCCCOC)c2cc(C)ccc2F)C1`, the half-maximal inhibitory concentration (IC50) at Renin [1] turned out to be 3.5 nM; at Renin [2] it was 67 nM.
In the same order, the values of `CNC[C@H](CC1CCCCC1)NC(=O)N1CCC[C@@H]([C@@](O)(CCCCOC)c2cccc(C(F)(F)F)c2)C1` are 7 nM and 389 nM.
In the same order, the values of `CNC[C@H](CC1CCCCC1)NC(=O)N1CCC[C@@H]([C@@](O)(CCCCOC)c2cccc(C#N)c2)C1` are 37 nM and 86 nM.
In the case of `CCOCCCO[C@@H](c1ccccc1)[C@@H]1CCCN(C(=O)N[C@H](CN)CC2CCCCC2)C1`, at Renin [1], the half-maximal inhibitory concentration (IC50) was determined as 55 nM.
As for `CNC[C@H](CC1CCCCC1)NC(=O)N1CCC[C@@H]([C@@H](OCCCOC)c2cccc(F)c2)C1`, the IC50 at Renin [1] stood at 58 nM.
On the same count and under the same terms, for `CNC[C@H](CC1CCCCC1)NC(=O)N1CCC[C@@H]([C@@H](OCCCOC)c2cccc(Cl)c2Cl)C1` the value was 609 nM.

As a reminder, the IC50 is the concentration that gives 50% inhibition.

These data come from ChEMBL document CHEMBL1136958, “Design and optimization of renin inhibitors: Orally bioavailable alkyl amines” (Bioorg Med Chem Lett, 2009).
